Reference: patent publication US20220168394A1, “METHODS OF INDUCING OR RESTORING IMMUNE TOLERANCE” (INSERM (Institut National de la Santé et de la Recherche …, priority 2019, published 2022)
Like-named read-outs stand apart in the source and are kept apart here.

Experiments:
[1] = system: CD4+ T cells; test: T cell depletion after immunosuppressive drug; design: species or system mice; conditions: mouse, in vivo
Description: (§1) First, scurfy mice were treated with an immunosuppressor: Temsirolimus (LC laboratories, Woburn, USA) was injected S.C at the dose of 2 mg/kg at day 8 and day 10 after birth. This treatment was continued twice a week in some experiment. Anti-CD3 Fab'2 (clone 145-2C11, BioXCell, West Lebanon, USA) was injected S.C at 20 μg/day during 5 days at day 8 after birth. Cyclophosphamide (European Pharmacopoeia (EP) Reference Standard, Merck KGaA, Darmstadt, Germany) was injected I.P. at 50, 100, or 150 mg/kg 10 days after birth. At day 10 or day 14, CD4^+CD25^+CD45.1^+cells (containing putative Tregs) or engineered CD4^+T cells (Foxp3.LNGFR or LNGFR) from Scurfy mice were injected at 0.5×10^6, 0.75×10^6 or 1×10^6 of cells respectively via I.P injections. […] In indicated experiments, together with cells, Proleukin (human IL-2, aldesleukine, Novartis) was injected at 1.000 UI/g via I.P and during 5 days then once a week.

[2] = system: Scurfy mice; test: Survival of Scurfy mice; format: in vivo
Description: (§2) Scurfy phenotype was obtained by backcrossing on B6. 129S7-Rag1tm1Mom/J background, allowing generation of homozygous XSf/XSfRag1−/− female. Crossing of these females with WT C57BL/6J mice result in the birth only of diseased XSf/Y.Rag1−/+male.
as §1
Values are represented as means ±SD, unless stated otherwise. GraphPad Prism 6.0 was used for all statistical analyses. P value was calculated with a confidence interval of 95% to indicate the statistical significance between groups. Statistical test included non-parametric Mann-Whitney test, Fischer exact test or two ways ANOVA depending on the dataset. A P value <0.05 was considered statistically significant. Statistically significant differences between groups are noted in figures with asterisks (*p<0.05, **p<0.01, ***p<0.001, ****p<0.0001). Correlations were performed with a non-parametric Spearman correlation. Survival was analyzed with Log-rank test (Mantel-Cox).
(§3) As shown in FIGS. 1-7, the inventors compared 7 different experimental protocols to identify the one allowing to test the efficacy of Treg to treat Scurfy autoimmune syndrome. Tregs were sorted on the basis of CD4 and CD25 expression from CD45.1 congenic B6 mice and injected at a dose of 5×10^5 intra-peritoneally at day 10 or 14. The criteria was the scurfy score measured every 3 to 4 days from birth and when signs of efficiency evidenced improved scores for mice transplanted with Tregs, survival was followed. Three drugs were tested as conditioning regimens: Temsirolimus, subcutaneously injected at a dose of 2 mg/kg daily from day 4 to day 28 or from day 4 to day 9 (post-birth), anti-CD3 Fab'2, subcutaneously injected at a dose of 20 micrograms/recipient, daily from day 8 to day 12, Cyclophosphamide at 3 different doses (50, 100 and 150 mg/kg) injected at day 10.

[3] = system: Scurfy mice
Description: as §2, §1, §3

[4] = system: Scurfy mice; remark: listed apart in the source
Description: as §1, §3

[5] = first series, Cy 50 mg/kg conditioned Scurfy mice

Compound | CD4 T cells nadir (time after injection) [1] [days] | T cells depletion across doses [1] | cell count normalized (time after injection) [1] [days] | delay of the death of scurfy mice ([2]; cyclophosphamide at all doses (50, 100 and 150 mg/kg) at day 10, no cells) | mean survival [2, 5] [days] | survival following Cy injection ([2]; increased from 30 (untreated mice) to 90 days, p=0.01) [days] | mean survival ([2]; second series, 90 days of follow-up) [days] | scurfy score ([3]; mouse, in vivo) | general toxicity ([4]; 50 mg/kg at day 10) | general toxicity revealed by the health status of the mice ([4]; 100 and 150 mg/kg at day 10) | toxicity observed ([4]; Cy 50, 100 or 150 at day 10, correlated with dose) | toxicities in young animals ([4]; even low dose of Cy) | life expectancy ([2]; Temsirolimus twice a week starting at day 8) | scurfy score ([3]; Temsirolimus twice a week starting at disease onset (day 8), drug alone) | improvement of Scurfy score after the infusion of Tregs ([3]; drug used as conditioning regimen, 5×10^5 Tregs i.p. at day 10 or 14) | effect on auto-immunity in Scurfy settings ([3]; low dose IL-2, 1.000 UI/g)
O.O=P1(N(CCCl)CCCl)NCCCO1 (centres unmarked) [Cyclophosphamide, 2-[bis(2-chloroethyl)amino]-tetrahydro-2H-1,3,2-oxazaphosphorine-2-oxide monohydrate] | 4 | not different with the three doses | 10 | more than 60 days | 39 | 90 | 47 | more stable scurfy score | absent | general toxicity | growth retardation and a transient alopecia | alopecia and growth retardation |  |  |  | 
CO[C@H]1C[C@@H]2CC[C@@H](C)[C@@](O)(O2)C(=O)C(=O)N2CCCC[C@H]2C(=O)O[C@H]([C@H](C)C[C@@H]2CC[C@@H](OC(=O)C(C)(CO)CO)[C@H](OC)C2)CC(=O)[C@H](C)/C=C(\C)[C@@H](O)[C@@H](OC)C(=O)[C@H](C)C[C@H](C)/C=C/C=C/C=C/1C [Temsirolimus] |  |  |  |  |  |  |  |  |  |  |  |  | doubling of life expectancy | reduction of Scurfy score | did not allow to reveal any improvement | 
IL-2: Proleukin (human IL-2, aldesleukine, Novartis) |  |  |  |  | 51 |  |  |  |  |  |  |  |  |  |  | did not worsen auto-immunity
